# Reference: paper PMC2112634 (The Journal of Cell Biology, 1983)
# Where two headings read alike, the source gives them in different places.
# What was measured:
# [1] = tested on: rabbit anti-CCK IgG (antiserum No. L-48); experiment: Affinity labeling of anti-CCK antibodies; assay type: binding; details: 0.07 nM 125I-CCK-33, 24 h at 4C, 1 mM DSS; Fig. 1 lane a
# [2] = tested on: CCK-binding sites on rat pancreatic acinar cells; assay type: cell-based
# [3] = target: T1, CCK-binding sites on rat pancreatic plasma membranes (Rattus norvegicus, UniProt P30551); experiment: Competitive inhibition of 125I-CCK-33 binding to pancreatic plasma membranes
# T1 sequence (P30551 1-444): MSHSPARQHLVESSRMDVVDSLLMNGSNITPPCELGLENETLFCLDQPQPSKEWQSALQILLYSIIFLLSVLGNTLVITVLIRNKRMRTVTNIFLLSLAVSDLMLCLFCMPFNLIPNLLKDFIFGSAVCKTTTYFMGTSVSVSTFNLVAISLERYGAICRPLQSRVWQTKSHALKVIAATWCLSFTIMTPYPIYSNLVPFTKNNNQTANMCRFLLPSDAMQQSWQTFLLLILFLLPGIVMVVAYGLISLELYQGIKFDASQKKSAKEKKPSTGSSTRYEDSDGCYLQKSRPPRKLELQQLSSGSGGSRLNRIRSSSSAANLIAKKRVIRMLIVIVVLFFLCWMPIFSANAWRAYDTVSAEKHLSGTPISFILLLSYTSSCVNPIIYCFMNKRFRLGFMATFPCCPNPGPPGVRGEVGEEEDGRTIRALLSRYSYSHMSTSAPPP
# [4] = 125I-labeled Bolton-Hunter reagent; cited from earlier work
# [5] = tested on: CCK-binding sites on rat pancreatic acinar cells; experiment: Light microscopic autoradiography of pancreatic acini; assay type: cell-based; details: ~0.1 nM 125I-CCK-33, 15 min at 37C; Fig. 2a; similar results at 2 min
# [6] = target: T2, CCK-binding site (Mr 85,000 protein) of rat pancreatic plasma membranes (Rattus norvegicus, UniProt P30551); experiment: Affinity labeling; details: micromolar concentrations of competitor; unpublished results
# T2 sequence (P30551 1-444): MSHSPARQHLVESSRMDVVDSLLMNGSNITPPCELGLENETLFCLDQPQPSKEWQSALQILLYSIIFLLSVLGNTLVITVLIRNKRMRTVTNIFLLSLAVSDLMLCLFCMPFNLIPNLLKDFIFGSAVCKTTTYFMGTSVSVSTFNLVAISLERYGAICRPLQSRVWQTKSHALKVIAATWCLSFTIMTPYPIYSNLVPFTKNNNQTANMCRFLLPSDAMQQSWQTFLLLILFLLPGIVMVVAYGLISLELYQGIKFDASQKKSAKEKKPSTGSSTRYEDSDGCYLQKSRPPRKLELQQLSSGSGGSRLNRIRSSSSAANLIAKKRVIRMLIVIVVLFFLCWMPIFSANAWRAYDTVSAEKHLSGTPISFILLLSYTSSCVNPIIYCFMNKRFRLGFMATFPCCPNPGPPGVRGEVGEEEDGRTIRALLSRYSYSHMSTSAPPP
# [7] = tested on: CCK receptor in rat pancreatic acini; details: rat pancreatic acinar cell; cited from earlier work
# [8] = tested on: CCK receptors of mouse pancreatic acini; details: electron microscopic autoradiography; cited from earlier work
# [9] = tested on: CCK-binding sites of rat pancreatic plasma membranes; details: ultraviolet irradiation cross-linking; cited from earlier work
# [10] = 0.1 nM 125I-CCK-33, 2 or 15 min, 37C, % of total grains
# [11] = 2 min, 37C, 0.1 nM 125I-CCK-33, mean ± SEM, 17 micrographs, Table I
# [12] = 15 min, 37C, 0.1 nM 125I-CCK-33, mean ± SEM, 18 micrographs, Table I
molecule,measurement,setting,value
"125I-CCK-33: CCK-33 acylated with 125I-labeled Bolton-Hunter reagent (KAPSGRVSMIKNLQSLDPSHRISDRDYMGWMDF; Cholecystokinin-33 125I-Bolton-Hunter labeled; UniProt P01356 70-102, looked up)",labeling of heavy and light chains of anti-CCK IgG,[1],labeling of the heavy and light chains of anti-CCK IgG was obtained
same,grains over cytoplasm (summary),[2]; [10],~ 30%
same,grains over embedding medium (summary),[2]; [10],5- 8%
same,grains over nucleus (summary),[2]; [10],1-2%
same,grains within 1 HD of the lateral and basal plasmalemma,[2]; [10],approximately 60%
same,Basal PM grain density,[2]; [11],2.57 0.08 grains/µm2
same,"Cytoplasm, % total grains",[2]; [11],34.0 ± 1.3 % total grains
same,Lateral PM grain density,[2]; [11],1.10 0.05 grains/µm2
same,"Lateral PM, % total grains",[2]; [11],12.1 ± 0.4 % total grains
same,distribution of grains at 4C,"[2]; 2 min or 15 min at 4C, data not shown, compared with 37C",Qualitatively similar results
same,relative grain density over cytoplasm or nucleus compared to embedding medium,"[2]; 15 min, 37C",no statistically significant increase
same,Apical PM grain density,[2]; [12],0.11 ± 0.02 grains/µm2
same,"Apical PM, % total grains",[2]; [12],0.1 % total grains
same,Basal PM grain density,[2]; [12],2.46 0.11 grains/µm2
same,"Basal PM, % total grains",[2]; [12],34.8 0.6 % total grains
same,"Cytoplasm, % total grains",[2]; [12],30.0 ± 0.8 % total grains
same,"Embedding medium, % total grains",[2]; [12],8.1 0.6 % total grains
same,Lateral PM grain density,[2]; [12],2.32 0.07 grains/µm2
same,"Lateral PM, % total grains",[2]; [12],25.5 ± 0.6 % total grains
same,specific binding sites on centroacinar or ductular cells,"[2]; autoradiography, 125I-CCK-33",no apparent specific
same,relative grain density over cytoplasm and nucleus (summary),"[2]; either time point, 37C",never exceeded unity
same,peptide released from binding sites during cross-linking and subsequent washing,[3],< 5%
same,secretagogue activity after Bolton-Hunter acylation,[4],retention of secretagogue activity
same,distribution of autoradiographic grains (light microscopy),[5],primarily delineated the basal and lateral boundaries of the acinar cells
secretin: peptide tested at micromolar concentration as specificity control,effect on labeling of membrane proteins by 125I-CCK-33,[6],unaffected
insulin: polypeptide hormone tested at micromolar concentration as specificity control,effect on labeling of membrane proteins by 125I-CCK-33,[6],unaffected
"cholecystokinin (peptide, UniProt P06307 21-115, looked up, Cholecystokinin) Cholecystokinin: QPVPPADPAGSGLQRAEEAPRRQLRVSQRTDGESRAHLGALLARYIQQARKAPSGRMSIVKNLQNLDPSHRISDRDYMGWMDFGRRSAEEYEYPS",high affinity binding sites per cell,[7],approximately 650 binding sites per cell
same,low affinity binding sites per cell,[7],"~100,000 binding sites per cell"
same,localization of CCK receptors,[8],localized to the basolateral plasmalemma of mouse pancreatic acini
same,Mr of specifically labeled polypeptide,[9],"76,000"
